Reference: patent US6300470A, “Antibiotic cryptdin peptides and methods of their use” (priority 1999, dated 2001)

Columns and labels:
Format in all cases: cell-based
[1] = tested on: wild type S. typhimurium (ATCC 10428); assay: agar radial diffusion assay, wild type S. typhimurium; conditions: HEPES or PIPES buffer; 100 μg/ml or 300 μg/ml
Experimental: (§1) FIGS. 7.A. and 7.B. depict the antimicrobial activity of mouse cryptain 1 (SEQ ID NO: 6). Samples of purified natural mouse cryptdin 1 (FIG. 7.A.) or rabbit NP-1 (FIG. 7.B.) were dissolved in 0.01% acetic acid and pipetted into wells produced in a 0.6, agarose/0.3% tryptone plate containing 1×10^6 log phase bacterial cells. After incubation at 37° C. for 18 hr, antimicrobial activity was evaluated by measuring the diameters of the clear zones. Closed circles denote wild type S. typhimurium; open circles denote the phoP^- mutant. […]
(§2) Antibacterial activity was measured in an agar radial diffusion assay (Lehrer et al., supra, 1991b) using wild type S. typhimurium (ATCC 10428) or an isogenic phoP mutant of S. typhimurium (strain CS015 phoP102::Tn10d-Cam, Miller et al., supra, 1989). […]
(§3) Purified cryptdin peptides were dissolved at 3 to 300 μg/ml in 0.010% acetic acid and activity was examined against E. coli ML35 (ATCC). […] Antibacterial activity was determined by measuring the diameter of learing around each well and plotted as a function of peptide concentration.

E. coli ML35 = assay: radial diffusion assay, E. coli ML35; conditions: 10 mM PIPES
Experimental: Purified cryptdin peptides were dissolved at 3 to 300 μg/ml in 0.010% acetic acid and activity was examined against E. coli ML35 (ATCC). In the radial diffusion assay, […] peptide solution was transferred into wells formed in plates of 1% agarose buffered with 10 mM PIPES (pH 7.4) and containing 1×10^6 log-phase bacteria grown in trypticase soy broth. After 3 hr at 37° C., the plates were overlayed with 0.8w agarose containing 2× trypticase soy broth and incubated overnight. The antibacterial activities of cryptdin peptides was compared with the activity of rabbit neutrophil defensin NP-1, which was purified from peritoneal exudates as described by Selsted et al. (J. Biol. Chem. 260:4579-4584 (1985), which is incorporated herein by reference). Antibacterial activity was determined by measuring the diameter of learing around each well and plotted as a function of peptide concentration.

S. aureus = assay: radial diffusion assay, S. aureus growth inhibition; conditions: higher concentrations (100 μg/ml and 300 μg/ml)
[2] = tested on: isogenic phoP mutant of S. typhimurium (strain CS015 phoP102::Tn10d-Cam); assay: agar radial diffusion assay, phoP mutant S. typhimurium; conditions: HEPES or PIPES buffer; 100 μg/ml or 300 μg/ml
Experimental: as §1, §2, §3

S. areus 502A cells = assay: bactericidal assay, S. aureus 502A; conditions: 10 μg/ml
Experimental: (§4) In order to determine whether the effect of the cryptdin peptides against E. coli is bacteriostatic or bacteriocidal, bacterial killing was quantitated as a function of time. Bactericidal asgayg were performed by incubating 1-2×10^6 log-phase bacteria in 10 mM PIPES containing 10 μg peptide/ml. After incubation for 15 or 30 min at 37° C., aliquots were removed, serially diluted and plated on trypticase soy agar. Bactericidal activity was quantitated by counting colonies after overnight incubation at 37° C.
(§5) The bactericidal activity of rat cryptdin 1 also was examined. E. coli ML35 cells, S. areus 502A cells or mutant or wild type S. typhimuruim cells were incubated with various concentrations of rat cryptdin 1 or rabbit NP-1.

[3] = tested on: wild type S. typhimuruim cells; assay: bactericidal assay, wild type S. typhimurium; conditions: 10 μg/ml
Experimental: as §4, §5

[4] = tested on: mutant S. typhimuruim cells; assay: bactericidal assay, mutant S. typhimurium
Experimental: as §4, §5

E. coli ML35 cells = assay: bactericidal assay in suspension, E. coli
Experimental: as §4, §5

Sequence	inhibiting growth of wild type S. typhimurium compared with NP-1 [1]	activity against E. coli ML35 relative to NP-1 (E. coli ML35; compared at 100 μg/ml and 300 μg/ml)	inhibiting growth of S. aureus compared with same concentration of NP-1 (S. aureus)	preventing growth of mutant S. typhimurium compared with NP-1 [2]	S. aureus cells killed (S. areus 502A cells)	killing of wild type S. typhimurium [3]	mutant S. typhimurium cells killed ([4]; 10 μg/ml)	killing of mutant S. typhimurium cells, rat cryptdin 1 compared with NP-1 ([4]; various concentrations)	E. coli cells killed (E. coli ML35 cells; 10 μg/ml)	killing of E. coli cells, rat cryptdin 1 compared with NP-1 (E. coli ML35 cells; various concentrations)	activity against E. coli ML35 relative to rabbit NP-1 (E. coli ML35; at concentration above 100 μg/ml)
GLLCYCRKGHCKRGERVRGTCGIRFLYCCPR [cryptdin 4]	more effective than the same concentration of NP-1	at least 50 ×	more effective than the same concentration of NP-1	more effective than the same concentration of NP-1	–	–	–	–	–	–	–
LKQCHCRKFCRPYEKAEGSCRPGLFIKRKICCIQQWTPG [rat cryptdin 1]	–	–	–	–	about 90%	relatively ineffective	greater than 99%	more effective than NP-1	greater than 99%	more effective than NP-1	–
LSKKLICYCRIRGCKRRERVFGTCRNLFLTFVFCC [cryptdin 5]	more effective than the same concentration of NP-1	–	more effective than the same concentration of NP-1	more effective than the same concentration of NP-1	–	–	–	–	–	–	approximately 5 ×
